Data reported in ChEMBL document CHEMBL4359837, “Discovery of 2-(4-Chloro-3-(trifluoromethyl)phenyl)-N-(4-((6,7-dimethoxyquinolin-4-yl)oxy)phenyl)acetamide (CHMFL-KIT-64) as a Novel Orally Available Potent Inhibitor against Broad-Spectrum Mutants of c-KIT Kinase for Gastrointestinal Stromal Tumors” (J Med Chem, 2019).
Activity calls are given as the source filed them. The calls are words filed in the database; no cut-off is given here.

Tests used:
[1] = target: RAC-alpha serine/threonine-protein kinase (Homo sapiens) (UniProt P31749); conditions: GISTT1, 0.1 uM
Description: Inhibition of AKT autophosphorylation at T308 residue in human GISTT1 cells harboring c-KIT 560 to 578 deletion/T670I mutant at 0.1 uM measured after 2 hrs by Western blot analysis

[2] = tested on: Mast/stem cell growth factor receptor Kit (Homo sapiens), P10721 [UNDEFINED MUTATION]; conditions: GISTT1, 0.1 uM
Mast/stem cell growth factor receptor Kit (Homo sapiens), P10721 [UNDEFINED MUTATION], sequence (P10721 whole entry, looked up, change not shown): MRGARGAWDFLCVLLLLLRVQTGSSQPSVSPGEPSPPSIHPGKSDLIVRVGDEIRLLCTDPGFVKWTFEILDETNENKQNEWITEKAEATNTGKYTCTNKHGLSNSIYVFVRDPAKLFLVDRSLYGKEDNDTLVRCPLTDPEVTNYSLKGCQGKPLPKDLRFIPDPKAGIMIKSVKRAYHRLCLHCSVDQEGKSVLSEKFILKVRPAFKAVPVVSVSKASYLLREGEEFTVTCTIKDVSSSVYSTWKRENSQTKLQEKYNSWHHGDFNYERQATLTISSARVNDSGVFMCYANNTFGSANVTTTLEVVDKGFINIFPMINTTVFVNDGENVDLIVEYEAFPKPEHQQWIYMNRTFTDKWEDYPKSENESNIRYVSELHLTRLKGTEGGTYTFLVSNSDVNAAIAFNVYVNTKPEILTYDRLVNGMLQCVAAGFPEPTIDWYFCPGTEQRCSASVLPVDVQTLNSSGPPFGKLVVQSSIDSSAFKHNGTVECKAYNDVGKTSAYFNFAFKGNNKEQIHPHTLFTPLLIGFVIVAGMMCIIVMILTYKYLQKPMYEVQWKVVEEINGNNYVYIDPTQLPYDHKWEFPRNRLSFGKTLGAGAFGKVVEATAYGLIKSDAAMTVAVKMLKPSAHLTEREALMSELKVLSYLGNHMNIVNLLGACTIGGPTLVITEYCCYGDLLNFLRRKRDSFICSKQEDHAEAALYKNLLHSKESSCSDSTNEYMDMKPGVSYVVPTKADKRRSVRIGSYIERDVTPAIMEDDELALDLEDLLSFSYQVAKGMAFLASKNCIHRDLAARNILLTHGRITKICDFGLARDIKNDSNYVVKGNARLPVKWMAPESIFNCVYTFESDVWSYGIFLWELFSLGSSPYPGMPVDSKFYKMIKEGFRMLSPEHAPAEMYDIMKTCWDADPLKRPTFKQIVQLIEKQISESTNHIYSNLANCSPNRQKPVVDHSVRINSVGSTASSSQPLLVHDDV
Description: Inhibition of c-KIT 560 to 578 deletion mutant in human GISTT1 cells assessed as reduction in c-KIT autophosphorylation at Y703 residue at 0.1 uM measured after 2 hrs by Western blot analysis

[3] = tested on: Mast/stem cell growth factor receptor Kit (Homo sapiens), P10721 [UNDEFINED MUTATION]; conditions: GISTT1, 0.1 uM; remark: listed apart in the source
Description: Inhibition of c-KIT 560 to 578 deletion mutant in human GISTT1 cells assessed as reduction in c-KIT autophosphorylation at Y719 residue at 0.1 uM measured after 2 hrs by Western blot analysis

[4] = tested on: Mast/stem cell growth factor receptor Kit (Homo sapiens), P10721 [UNDEFINED MUTATION]; conditions: GISTT1, 0.1 uM; remark: listed apart in the source
Description: Inhibition of c-KIT 560 to 578 deletion mutant in human GISTT1 cells assessed as reduction in c-KIT autophosphorylation at Y823 residue at 0.1 uM measured after 2 hrs by Western blot analysis

[5] = tested on: Mast/stem cell growth factor receptor Kit (Homo sapiens), P10721 [UNDEFINED MUTATION]; conditions: 0.1 uM
Description: Inhibition of c-KIT 560 to 578 deletion/T670I mutant in human GIST5R cells assessed as reduction in c-KIT autophosphorylation at Y823 residue at 0.1 uM measured after 2 hrs by Western blot analysis

[6] = tested on: Mast/stem cell growth factor receptor Kit (Homo sapiens), P10721 [UNDEFINED MUTATION]; conditions: GISTT1, 0.1 uM; remark: listed apart in the source
Description: Inhibition of c-KIT 560 to 578 deletion mutant in human GISTT1 cells assessed as reduction in ERK phosphorylation at T202 residue at 0.1 uM measured after 2 hrs by Western blot analysis

[7] = tested on: Mast/stem cell growth factor receptor Kit (Homo sapiens), P10721 [UNDEFINED MUTATION]; conditions: GISTT1, 0.1 uM; remark: listed apart in the source
Description: Inhibition of c-KIT 560 to 578 deletion/T670I mutant in human GISTT1 cells assessed as reduction in AKT phosphorylation at S473 residue at 0.1 uM measured after 2 hrs by Western blot analysis

[8] = tested on: Mast/stem cell growth factor receptor Kit (Homo sapiens), P10721 [UNDEFINED MUTATION]; conditions: GISTT1, 0.1 uM; remark: listed apart in the source
Description: Inhibition of c-KIT 560 to 578 deletion/T670I mutant in human GISTT1 cells assessed as reduction in ERK phosphorylation at T204 residue at 0.1 uM measured after 2 hrs by Western blot analysis

[9] = tested on: Mast/stem cell growth factor receptor Kit (Homo sapiens), P10721 [UNDEFINED MUTATION]; conditions: 0.1 uM; remark: listed apart in the source
Description: Inhibition of c-KIT 560 to 578 deletion/T670I mutant in human GIST5R assessed as reduction in AKT phosphorylation at S473 residue at 0.1 uM measured after 2 hrs by Western blot analysis

[10] = tested on: Mast/stem cell growth factor receptor Kit (Homo sapiens), P10721 [UNDEFINED MUTATION]; conditions: 0.1 uM; remark: listed apart in the source
Description: Inhibition of c-KIT 560 to 578 deletion/T670I mutant in human GIST5R assessed as reduction in pS6 phosphorylation at S235 residue at 0.1 uM measured after 2 hrs by Western blot analysis

Mus musculus [11] = assay: Antitumor activity against mouse BAF3(transformed) cells harboring c-KIT T670I mutant implanted in BALB/c nu mouse assessed as tumor growth inhibition administered via oral gavage for 11 days; type: functional
[12] = target: T1, Macrophage colony-stimulating factor 1 receptor (Homo sapiens, UniProt P07333); assay: Binding affinity to wild-type human partial length CSF1R (I564 to S939 residues) expressed in bacterial expression system assessed as residual binding level at 1 uM by Kinomescan method relative to control
T1 sequence (P07333 whole entry, the tested form may be a part): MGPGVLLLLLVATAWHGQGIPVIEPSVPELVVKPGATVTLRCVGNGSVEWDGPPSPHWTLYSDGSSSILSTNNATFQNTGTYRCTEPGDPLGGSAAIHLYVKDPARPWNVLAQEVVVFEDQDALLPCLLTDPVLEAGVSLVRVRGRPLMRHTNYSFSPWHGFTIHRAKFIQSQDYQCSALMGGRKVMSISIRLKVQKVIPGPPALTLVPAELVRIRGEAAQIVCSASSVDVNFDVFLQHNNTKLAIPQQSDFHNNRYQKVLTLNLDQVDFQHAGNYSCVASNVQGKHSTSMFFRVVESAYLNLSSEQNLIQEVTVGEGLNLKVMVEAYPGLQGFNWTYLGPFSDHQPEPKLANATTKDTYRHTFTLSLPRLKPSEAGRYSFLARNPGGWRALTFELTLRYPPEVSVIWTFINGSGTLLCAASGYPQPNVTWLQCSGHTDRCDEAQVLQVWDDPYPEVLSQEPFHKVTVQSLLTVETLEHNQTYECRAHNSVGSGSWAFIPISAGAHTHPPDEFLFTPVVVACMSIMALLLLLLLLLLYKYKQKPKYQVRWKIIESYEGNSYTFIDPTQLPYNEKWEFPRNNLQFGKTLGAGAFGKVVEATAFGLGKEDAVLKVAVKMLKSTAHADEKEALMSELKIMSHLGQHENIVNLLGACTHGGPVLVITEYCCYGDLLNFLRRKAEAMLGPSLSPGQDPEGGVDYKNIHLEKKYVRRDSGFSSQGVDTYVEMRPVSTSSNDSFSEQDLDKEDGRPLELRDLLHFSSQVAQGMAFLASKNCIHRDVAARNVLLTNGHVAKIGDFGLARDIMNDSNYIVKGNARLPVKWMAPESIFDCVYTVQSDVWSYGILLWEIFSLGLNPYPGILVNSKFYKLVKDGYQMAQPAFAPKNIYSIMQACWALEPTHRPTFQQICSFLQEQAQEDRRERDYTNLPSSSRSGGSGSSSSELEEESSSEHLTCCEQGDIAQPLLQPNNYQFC

[13] = target: Vascular endothelial growth factor receptor 3 (Homo sapiens) (UniProt P35916); assay: Binding affinity to wild-type human partial length FLT4 (E821 to E1196 residues) expressed in bacterial expression system assessed as residual binding level at 1 uM by Kinomescan method relative to control
[14] = target: Proto-oncogene tyrosine-protein kinase receptor Ret (Homo sapiens, UniProt P07949); assay: Binding affinity to wild-type human partial length RET (E713 to D1014 residues) expressed in bacterial expression system assessed as residual binding level at 1 uM by Kinomescan method relative to control
[15] = target: T1, Macrophage colony-stimulating factor 1 receptor; assay: Inhibition of recombinant human His-tagged CSF1R cytoplasmic domain (538 to 910 residues) expressed in baculovirus expression system by Z-lyte assay
[16] = target: Epithelial discoidin domain-containing receptor 1 (Homo sapiens, UniProt Q08345); assay: Inhibition of human GST-tagged DDR1 catalytic domain (440 to 876 residues) expressed in baculovirus expression system by Lanthascreen Eu-binding assay
[17] = target: Platelet-derived growth factor receptor beta (Homo sapiens, UniProt P09619); assay: Inhibition of recombinant human His-tagged PDGFRB cytoplasmic domain (558 to 1106 residues) expressed in baculovirus expression system by Z-lyte assay
Platelet-derived growth factor receptor beta, sequence (P09619 whole entry, the tested form may be a part): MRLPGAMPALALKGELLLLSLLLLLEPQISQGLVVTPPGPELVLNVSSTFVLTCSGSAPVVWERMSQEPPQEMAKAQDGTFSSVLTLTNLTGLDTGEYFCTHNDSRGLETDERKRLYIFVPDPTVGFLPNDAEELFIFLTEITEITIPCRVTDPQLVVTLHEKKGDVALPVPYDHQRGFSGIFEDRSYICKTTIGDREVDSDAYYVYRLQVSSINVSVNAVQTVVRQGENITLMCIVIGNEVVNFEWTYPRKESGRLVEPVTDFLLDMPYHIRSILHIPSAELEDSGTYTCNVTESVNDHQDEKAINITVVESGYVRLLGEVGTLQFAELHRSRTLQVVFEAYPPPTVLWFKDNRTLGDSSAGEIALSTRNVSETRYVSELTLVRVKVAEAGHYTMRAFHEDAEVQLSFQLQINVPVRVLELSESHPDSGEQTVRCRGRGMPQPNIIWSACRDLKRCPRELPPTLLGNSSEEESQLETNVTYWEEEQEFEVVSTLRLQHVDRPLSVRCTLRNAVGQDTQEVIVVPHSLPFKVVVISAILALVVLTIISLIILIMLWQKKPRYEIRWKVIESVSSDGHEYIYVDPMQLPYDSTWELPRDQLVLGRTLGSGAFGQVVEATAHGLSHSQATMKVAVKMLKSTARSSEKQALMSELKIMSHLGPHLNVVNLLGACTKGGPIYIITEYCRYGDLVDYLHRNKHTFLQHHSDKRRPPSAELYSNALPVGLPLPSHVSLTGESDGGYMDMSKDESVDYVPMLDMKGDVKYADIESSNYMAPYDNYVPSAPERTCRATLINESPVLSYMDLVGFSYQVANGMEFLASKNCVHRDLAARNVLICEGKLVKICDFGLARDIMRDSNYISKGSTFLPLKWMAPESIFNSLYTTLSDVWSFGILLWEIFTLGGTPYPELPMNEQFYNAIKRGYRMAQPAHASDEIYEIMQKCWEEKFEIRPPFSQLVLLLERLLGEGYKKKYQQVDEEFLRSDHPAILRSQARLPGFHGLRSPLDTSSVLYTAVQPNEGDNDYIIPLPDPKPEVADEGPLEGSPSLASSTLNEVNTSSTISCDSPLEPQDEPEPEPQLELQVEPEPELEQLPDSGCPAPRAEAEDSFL

[18] = target: Epithelial discoidin domain-containing receptor 1 (Mus musculus) (UniProt Q03146); assay: Inhibition of DDR1 in mouse BAF3(transformed) cells assessed as growth inhibition after 72 hrs by CCK8 assay
[19] = target: Proto-oncogene tyrosine-protein kinase receptor Ret (Mus musculus) (UniProt P35546); assay: Inhibition of RET in mouse BAF3(transformed) cells assessed as growth inhibition after 72 hrs by CCK8 assay
[20] = target: T2, Mast/stem cell growth factor receptor Kit (Homo sapiens, UniProt P10721, 560-578DEL); type: cell-based, GISTT1
T2 sequence (P10721 whole entry, looked up, stated change not applied): as the sequence (P10721 whole entry, looked up, change not shown) above

[21] = target: T3, Mast/stem cell growth factor receptor Kit (Homo sapiens, UniProt P10721, 560-578DEL/T670I); type: cell-based, GISTT1
T3 sequence (P10721 whole entry, looked up, stated change not applied): as the sequence (P10721 whole entry, looked up, change not shown) above

[22] = target: T2, Mast/stem cell growth factor receptor Kit; type: cell-based, GISTT1; remark: listed apart in the source
[23] = target: T2, Mast/stem cell growth factor receptor Kit; type: cell-based, GISTT1; remark: listed apart in the source
[24] = target: T3, Mast/stem cell growth factor receptor Kit; type: cell-based, GISTT1; remark: listed apart in the source
[25] = target: T3, Mast/stem cell growth factor receptor Kit; type: cell-based, GISTT1; remark: listed apart in the source
[26] = target: T3, Mast/stem cell growth factor receptor Kit; type: cell-based, GISTT1; remark: listed apart in the source
[27] = target: T3, Mast/stem cell growth factor receptor Kit
[28] = target: T3, Mast/stem cell growth factor receptor Kit; remark: listed apart in the source
GISTT1 [29] = type: functional, cell-based; conditions: Homo sapiens
[30] = Half life in Sprague-Dawley rat at 1 mg/kg, iv by LC-MS/MS analysis; type: ADME, organism-based; conditions: in vivo
[31] = Cmax in Sprague-Dawley rat at 1 mg/kg, iv by LC-MS/MS analysis; type: ADME, organism-based; set-up: dose 1 mg/kg, route intravenous; conditions: in vivo
[32] = Half life in Sprague-Dawley rat at 10 mg/kg, po by LC-MS/MS analysis; type: ADME, organism-based; conditions: in vivo
[33] = Tmax in mouse at 10 mg/kg, po by LC-MS/MS analysis; type: ADME, organism-based; conditions: in vivo
[34] = AUC (0 to t) in Beagle dog at 1 mg/kg, iv by LC-MS/MS analysis; type: ADME, organism-based, Canis lupus familiaris; conditions: in vivo
[35] = Tmax in Beagle dog at 5 mg/kg, po by LC-MS/MS analysis; type: ADME, organism-based, Canis lupus familiaris; conditions: in vivo
[36] = Half life in Beagle dog at 5 mg/kg, po by LC-MS/MS analysis; type: ADME, organism-based, Canis lupus familiaris; conditions: in vivo
Mus musculus [37] = type: functional, organism-based; conditions: BALB/c, 80 mg/kg
Mus musculus [38] = type: functional, organism-based; conditions: BALB/c, 80 mg/kg; remark: listed apart in the source
Mus musculus [39] = type: functional, organism-based; conditions: BALB/c, 80 mg/kg; remark: listed apart in the source
Mus musculus [40] = type: functional, organism-based; conditions: BALB/c, 80 mg/kg; remark: listed apart in the source
[41] = Antitumor activity against mouse BAF3(transformed) cells harboring c-KIT D820G mutant implanted in BALB/c nu mouse assessed as tumor growth inhibition at 80 mg/kg/day, po administered via gavage for 9 days relative to control; type: functional; conditions: 216 h, read-out: TGI
GISTT1 [42] = type: functional, Homo sapiens; conditions: Mus musculus, GISTT1, po, 672 h; read-out: TGI
GISTT1 [43] = type: functional, Homo sapiens; conditions: Mus musculus, GISTT1, po, 672 h; read-out: TGI; remark: listed apart in the source
Homo sapiens = type: functional; conditions: 20 mg/kg
[44] = Toxicity in BALB/c nu mouse implanted with mouse BAF3(transformed) cells harboring c-KIT Y823D mutant assessed as change in body weight at 40 to 80 mg/kg/day, po administered via gavage for 9 days measured daily during compound dosing; type: organism-based; conditions: in vivo, 216 h
[45] = tested on: Mast/stem cell growth factor receptor Kit (Homo sapiens), P10721 [V560D]; conditions: Mus musculus
[46] = tested on: Mast/stem cell growth factor receptor Kit (Homo sapiens), P10721 [Y823D]; conditions: Mus musculus
Description: Inhibition of c-KIT Y823D mutant in mouse BAF3(transformed) cells assessed as growth inhibition after 72 hrs by CCK8 assay

[47] = tested on: Mast/stem cell growth factor receptor Kit (Homo sapiens), P10721 [K642E]
[48] = tested on: Mast/stem cell growth factor receptor Kit (Homo sapiens), P10721 [UNDEFINED MUTATION]; conditions: GISTT1
Description: Inhibition of c-KIT 560 to 578 deletion/T670I mutant in human GISTT1 cells assessed as growth inhibition after 72 hrs by CCK8 assay

## CCN(CC)CCNC(=O)c1c(C)[nH]c(/C=C2\C(=O)Nc3ccc(F)cc32)c1C [SUNITINIB]
[1]
  inhibition: inactive
[2]
  inhibition: Active
[3]
  inhibition: Active
[4]
  inhibition: Active
[5]
  inhibition: Active
[6]
  inhibition: Active
[7]
  inhibition: Active
[8]
  inhibition: Active
[9]
  inhibition: Active
[10]
  inhibition: Active

## COc1cc2nccc(Oc3ccc(NC(=O)Cc4ccc(Cl)c(C(F)(F)F)c4)cc3)c2cc1OC
Mus musculus [11]
  TGI: Dose-dependent effect
[12]
  Activity: < 1%
[13]
  Activity: < 1%
[14]
  Activity: < 1%
[15]
  IC50: 18 nM
[16]
  IC50: 135 nM
[17]
  IC50: 97 nM
[18]
  GI50: > 1000 nM
[19]
  GI50: 280 nM
[20]
  EC50: < 100 nM
[21]
  EC50: < 100 nM
[22]
  EC50: < 100 nM
[23]
  EC50: < 100 nM
[24]
  EC50: < 100 nM
[25]
  EC50: < 100 nM
[26]
  EC50: < 100 nM
[27]
  EC50: < 100 nM
[28]
  EC50: < 100 nM
GISTT1 [29]
  Activity: Dose-dependent effect
[30]
  half-life: 15.8 h
[31]
  Cmax: 660 ng/mL
[32]
  half-life: 6.41 h
[33]
  Tmax: 4 h
[34]
  AUC(0-t): 5320 ng·h/mL
[35]
  Tmax: 5.33 h
[36]
  half-life: 19.4 h
Mus musculus [37]
  inhibition: inactive
Mus musculus [38]
  inhibition: inactive
Mus musculus [39]
  inhibition: inactive
Mus musculus [40]
  inhibition: inactive
[41]
  inhibition in vivo at 80 mg/kg/day: 92.7%
GISTT1 [42]
  inhibition in vivo at 20 mg/kg/day: 95.6%
GISTT1 [43]
  inhibition in vivo at 40 mg/kg/day: 96.9%
Homo sapiens
  TGI: Dose-dependent effect
[44]
  Activity: Non-Toxic
[45]
  GI50: 4 nM
[46]
  GI50: 35 nM
[47]
  GI50: 13 nM
[48]
  GI50: 6 nM
